The source of these data is patent publication US20160326142A1, “PYRAZOLE CARBOXAMIDE COMPOUNDS, COMPOSITIONS AND METHODS OF USE” (Genentech, Inc., priority 2012, published 2016).

In the assay the target is T1, ITK (Homo sapiens, UniProt Q08881).
T1 construct: purchased Invitrogen PV3875
T1 sequence (Q08881 1-620): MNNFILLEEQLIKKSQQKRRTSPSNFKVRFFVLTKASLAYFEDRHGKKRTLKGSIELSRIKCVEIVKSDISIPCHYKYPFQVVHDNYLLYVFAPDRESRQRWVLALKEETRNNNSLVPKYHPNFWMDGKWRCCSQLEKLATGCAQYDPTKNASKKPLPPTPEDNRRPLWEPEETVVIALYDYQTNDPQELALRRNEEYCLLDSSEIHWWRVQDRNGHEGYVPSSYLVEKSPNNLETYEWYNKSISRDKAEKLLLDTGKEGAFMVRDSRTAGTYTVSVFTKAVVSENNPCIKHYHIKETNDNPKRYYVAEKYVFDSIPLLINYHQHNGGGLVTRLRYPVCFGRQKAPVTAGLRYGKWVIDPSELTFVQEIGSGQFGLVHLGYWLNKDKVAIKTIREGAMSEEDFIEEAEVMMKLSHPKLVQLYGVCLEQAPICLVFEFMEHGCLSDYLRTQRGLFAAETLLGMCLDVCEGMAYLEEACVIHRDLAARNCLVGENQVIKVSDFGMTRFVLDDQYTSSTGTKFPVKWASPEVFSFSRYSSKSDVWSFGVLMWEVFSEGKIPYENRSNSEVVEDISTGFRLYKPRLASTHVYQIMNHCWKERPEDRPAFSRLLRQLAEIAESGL
In words: ITK enzyme assay (Caliper or LCMS peptide phosphorylation). It is filed as biochemical. To be noted: purified ITK (Invitrogen PV3875), 20 μM ATP, Ki by Morrison's quadratic equation. Summed up:
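Purified human ITK peptide phosphorylation, quenched with EDTA (50 mM final) for Caliper LabChip separation or TCA (5% v/v final) for UPLC-MS/MS MRM quantification. Ki derived via Morrison tight-binding equation, corrected for competitive inhibition using ATP concentration relative to Km,app.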
Broadly, the Ki is a dissociation constant, usually derived from enzyme kinetics or from competition with a known ligand. Turning to `CC1(C)CCc2c(C(=O)Nc3cnn(C(c4cccnc4)C4CS(=O)(=O)C4)c3)n[nH]c2C1` (single isomer, unassigned) [Example 117a], the affinity, expressed as Ki, was 0.2 nM.

In turn, `CC1(C)CCc2c(C(=O)Nc3cnn(C(c4cccnc4)C4CS(=O)(=O)C4)c3)n[nH]c2C1` (single isomer, unassigned) [Example 117b] came in with a Ki of 6 nM.

With `CC1(C)CCc2c(C(=O)Nc3cnn(C(c4cccc(C(C)(C)O)c4)C4CCS(=O)(=O)CC4)c3)n[nH]c2C1` (single isomer, unassigned) [Example 119a], the affinity corresponds to a Ki of 0.1 nM.

`CC1(C)CCc2c(C(=O)Nc3cnn(C(c4cccc(C(C)(C)O)c4)C4CCS(=O)(=O)CC4)c3)n[nH]c2C1` (single isomer, unassigned) [Example 119b] yielded a Ki of 4 nM.

`CC12Cc3[nH]nc(C(=O)Nc4cnn(C(c5ccccc5)C5CC[S+]([O-])CC5)c4)c3CC1C2` (single isomer, unassigned) [Example 120a, 5a-methyl-N-(1-((1-oxidotetrahydro-2H-thiopyran-4-yl)(phenyl)methyl)-1H-pyrazol-4-yl)-1,4,4a,5,5a,6-hexahydrocyclopropa[f]indazole-3-carboxamide] returned a Ki of 0.1 nM.

Regarding `CC12Cc3[nH]nc(C(=O)Nc4cnn(C(c5ccccc5)C5CC[S+]([O-])CC5)c4)c3CC1C2` (single isomer, unassigned) [Example 120b, 5a-methyl-N-(1-((1-oxidotetrahydro-2H-thiopyran-4-yl)(phenyl)methyl)-1H-pyrazol-4-yl)-1,4,4a,5,5a,6-hexahydrocyclopropa[f]indazole-3-carboxamide], the Ki was < 0.1 nM.

`CC1(C)CCc2c(C(=O)Nc3cnn(C(CCN4CC(F)(F)C4)c4ccccc4)c3)n[nH]c2C1` (single isomer, unassigned) [Example 121a, N-(1-(3-(3,3-difluoroazetidin-1-yl)-1-phenylpropyl)-1H-pyrazol-4-yl)-6,6-dimethyl-4,5,6,7-tetrahydro-1H-indazole-3-carboxamide]: the Ki was found to be 6 nM.

As for `CC1(C)CCc2c(C(=O)Nc3cnn(C(CCN4CC(F)(F)C4)c4ccccc4)c3)n[nH]c2C1` (single isomer, unassigned) [Example 121b, N-(1-(3-(3,3-difluoroazetidin-1-yl)-1-phenylpropyl)-1H-pyrazol-4-yl)-6,6-dimethyl-4,5,6,7-tetrahydro-1H-indazole-3-carboxamide], the Ki came out at 1 nM.

In turn, `CN1CCC2(CCc3c(C(=O)Nc4cnn(Cc5ccccc5)c4)n[nH]c3C2)C1=O` (single isomer, unassigned) [Example 123a, N-(1-benzyl-1H-pyrazol-4-yl)-1′-methyl-2′-oxo-1,4,5,7-tetrahydrospiro[indazole-6,3′-pyrrolidine]-3-carboxamide] registered a Ki of 88 nM.

Consider `CC1(C)CCc2c(C(=O)Nc3cnn(C(c4cccc(S(C)(=O)=O)c4)C4CC4)c3)n[nH]c2C1` (single isomer, unassigned) [Example 125a, N-(1-(cyclopropyl(3-(methylsulfonyl)phenyl)methyl)-1H-pyrazol-4-yl)-6,6-dimethyl-4,5,6,7-tetrahydro-1H-indazole-3-carboxamide], for which the affinity corresponds to a Ki of 2 nM.

Regarding `CC1(C)CCc2c(C(=O)Nc3cnn(C(c4cccc(S(C)(=O)=O)c4)C4CC4)c3)n[nH]c2C1` (single isomer, unassigned) [Example 125b, N-(1-(cyclopropyl(3-(methylsulfonyl)phenyl)methyl)-1H-pyrazol-4-yl)-6,6-dimethyl-4,5,6,7-tetrahydro-1H-indazole-3-carboxamide], the Ki is 10 nM. This Ki lies about 5-fold higher than the previous one.

In turn, `CC1(C)CCc2c(C(=O)Nc3cnn(C(c4cccc(S(C)(=O)=O)c4)C4CCOC4)c3)n[nH]c2C1` (single isomer, unassigned) [Example 126a, 6,6-dimethyl-N-(1-((3-(methylsulfonyl)phenyl)(tetrahydrofuran-3-yl)methyl)-1H-pyrazol-4-yl)-4,5,6,7-tetrahydro-1H-indazole-3-carboxamide] yielded a Ki of 2 nM. Compared with the last molecule, the Ki is about 5-fold lower.
